Measured values reported in patent publication US11446290B2, “Treatment of pain with serotonin-3 receptor agonist” (priority 2017, dated 2022).

How the values were obtained:
Assay type in all cases: in vivo
Male ddY mice [1] = assay: Experiment 1: therapeutic effects on pain, foot licking and biting after formalin administration
Male ddY mice [2] = assay: Experiment 3: therapeutic effects on pain derived from an emotional component (conditioned pain, saline injection at day 4); conditions: for therapeutic effect on pain derived from an emotional component: foot licking of uninjected foot and biting for 5 minutes, FIG. 3; for therapeutic effects on pain derived from an emotional component: experiments using a similar method, dose not given
Male ddY mice [3] = assay: Experiment 4: effect on amount of activity (supermex); conditions: measured for 5 minutes after 30 minutes, FIG. 4
Text: The following Experiments 1 to 5 have been carried out according to the method described in literatures (M Nakamura-Kitamura et al. Brain Research 1406 (2011), 8-17; and M Nakamura-Kitamura et al. Pain Research 27 (2012), 153-164) with minor modifications.
Male ddY mice of 5 weeks old (Japan SLC) were used in the experiments. Regarding the environment context as external senses and sensory stimuli such as tactile sense, visual sense, and feeling, a black cylindrical polypropylene box (diameter: 9.5 cm, height: 7 cm, with a round petri dish having a diameter of 8.5 cm at the bottom) and a translucent polypropylene box (14 cm (length)×9.5 cm (width)×5 cm (height), with a reticular plate at the floor) were used.
In order to study the effect of Compound A on the amount of activity, Compound A (5 mg/kg or 10 mg/kg) or vehicle (i.e., saline comprising 5% DMSO) was intraperitoneally administered to each mouse, and after 30 minutes, the amount of activity of the mouse was measured for 5 minutes using supermex (Muromachi Kikai Co., Ltd.). In the experiment, the vehicle administration group consisted of 7 mice, the Compound A (5 mg/kg) administration group consisted of 7 mice, and the Compound A (10 mg/kg) administration group consisted of 6 mice.

Male ddY mice [4] = assay: Experiment 5: therapeutic effects on acute pain, formalin test phase 1 and phase 2; conditions: 1, 5, 10 mg/kg i.p. 30 minutes before formalin

Compound: NC1CCN(c2cccc(Cl)n2)CC1 [Compound A, 1-(6-chloropyridin-2-yl)piperidin-4-amine]
- foot licking and biting caused by formalin (Male ddY mice [1]; 5 mg/kg intraperitoneally 30 minutes before formalin (0.67%, 20 μL), measured for 5 minutes, FIG. 1): significantly suppress
- therapeutic effect on pain compared to existing drugs (Male ddY mice [1]; mouse, in vivo): more excellent therapeutic effect on pain as compared to the existing drugs
- therapeutic effect on pain derived from an emotional component (Male ddY mice [2]; 5 mg/kg intraperitoneally 30 minutes before saline at day 4): very strong therapeutic effect
- therapeutic effect on pain derived from an emotional component (Male ddY mice [2]; 10 mg/kg intraperitoneally 30 minutes before saline at day 4): very strong therapeutic effect
- therapeutic effect on pain derived from an emotional component compared to each existing drug (Male ddY mice [2]; mouse, in vivo): significantly excellent therapeutic effect as compared to each existing drug
- effect on the amount of activity (Male ddY mice [3]; 5 mg/kg intraperitoneal): no effect
- effect on the amount of activity (Male ddY mice [3]; 10 mg/kg intraperitoneal): no effect
- foot licking and biting caused by formalin, phase 1 (Male ddY mice [4]; 0 to 5 minutes after formalin, FIG. 5): dose-dependently and significantly suppress
- foot licking and biting caused by formalin, phase 2 (Male ddY mice [4]; 5 to 30 minutes after formalin, FIG. 6): dose-dependently and significantly suppress

Compound: Cl.Cn1cc(C(=O)C(=O)N[C@H]2CN3CCC2CC3)c2ccccc21 [G, (R)—N-(1-azabicyclo[2.2.2]oct-3-yl)-2-(1-methyl-1H-indol-3-yl)-2-(1-methyl-1H-indol-3-yl)-2-oxoacetamide hydrochloride]
- therapeutic effects on pain derived from an emotional component (Male ddY mice [2]): showed therapeutic effects

Compound: Cl.N=C(N)NC(=N)Nc1cccc(Cl)c1 [Compound B, m-chlorophenylbiguanide hydrochloride]
- therapeutic effects on pain derived from an emotional component (Male ddY mice [2]): showed therapeutic effects

Compound: Cc1[nH]c2ccc(O)cc2c1CCN.Cl [Compound F, 2-methyl-5-hydroxytryptamine hydrochloride]
- therapeutic effects on pain derived from an emotional component (Male ddY mice [2]): showed therapeutic effects

Compound: Cl.N=C(N)NC(=N)Nc1ccccc1 [Compound C, 1-phenylbiguanide hydrochloride]
- therapeutic effects on pain derived from an emotional component (Male ddY mice [2]): showed therapeutic effects
